These compounds were tested against human Factor XIIa (Homo sapiens (Human), UniProt P00748) (assay: Factor XIIa Assay). Conditions: purified human Factor XIIa 500 pM; substrate n-Acetyl-Lys-Pro-Arg-AFC 100 μM; pH 7.4; read-out: FXIIa IC50.
human Factor XIIa, sequence (P00748 373-615): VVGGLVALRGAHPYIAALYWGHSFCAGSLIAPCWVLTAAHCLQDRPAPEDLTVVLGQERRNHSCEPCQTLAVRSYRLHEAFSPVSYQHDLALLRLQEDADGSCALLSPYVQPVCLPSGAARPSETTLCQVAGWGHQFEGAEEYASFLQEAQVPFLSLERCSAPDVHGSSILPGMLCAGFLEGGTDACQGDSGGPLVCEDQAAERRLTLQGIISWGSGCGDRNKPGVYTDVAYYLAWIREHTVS
Format: biochemical
Method: The effectiveness of a compound of the present invention as an inhibitor of Coagulation Factor XIIa can be determined using a relevant purified serine protease, and an appropriate synthetic substrate. The rate of hydrolysis of the chromogenic or fluorogenic substrate by the relevant serine protease was measured both in the absence and presence of compounds of the present invention. Assays were conducted at room temperature or at 37° C. […] A decrease in the rate of fluorescence change in the presence of inhibitor is indicative of enzyme inhibition. Such methods are known to one skilled in the art.
Factor XIIa activity determinations were made in 50 mM HEPES buffer containing 150 mM NaCl, 5 mM CaCl2, and 0.1% PEG 8000 (polyethylene glycol; JT Baker or Fisher Scientific) at pH 7.4. Determinations were made using purified human Factor XIIa at a final concentration of 500 pM (Sekisui Diagnostics) and the synthetic substrate, n-Acetyl-Lys-Pro-Arg-AFC, TFA salt (Sigma #C6608) at a concentration of 100 μM.
Times required to achieve equilibration between enzyme and inhibitor were determined in control experiments. Initial velocities of product formation in the absence (Vo) or presence of inhibitor (Vi) were measured. IC50 was determined as the concentration of I yielding Vi=Vo/2.
`NCc1ccc(CNC(=O)[C@@H]2CN(C(=O)Oc3ccccc3Cl)CCN2C(=O)[C@@H](CC2CCCCC2)NC2CCCCC2)cc1` [Example 5, 2-chlorophenyl (3S)-3-{[4-(aminomethyl)benzyl]carbamoyl}-4-(N,3-dicyclohexyl-D-alanyl)piperazine-1-carboxylate] gave an IC50 of 5.9 nM. In the case of `O=C(NCc1cccs1)[C@@H]1CN(C(=O)Oc2cccc3cncnc23)CCN1C(=O)[C@@H](CC1CCCCC1)NC1CCCCC1` [Example 18, quinazolin-8-yl (3S)-4-(N,3-dicyclohexyl-D-alanyl)-3-[(thiophen-2-ylmethyl)carbamoyl]piperazine-1-carboxylate], the IC50 is reported as 4.5 nM. Work on `NCc1ccc(OC(=O)N2CCN(C(=O)[C@@H](CC3CCCCC3)NC3CCCCC3)[C@H](C(=O)NCc3cccs3)C2)c(Cl)c1` [Example 21, 4-(aminomethyl)-2-chlorophenyl (3S)-4-(N,3-dicyclohexyl-D-alanyl)-3-[(thiophen-2-ylmethyl)carbamoyl]piperazine-1-carboxylate] yielded an IC50 of 6.7 nM. `COc1cc(CNC(=O)[C@@H]2CN(C(=O)Oc3cccc4ccccc34)CCN2C(=O)[C@@H](CC2CCCCC2)NC2CCCCC2)ccc1CN` [Example 24, naphthalen-1-yl (3S)-3-{[4-(aminomethyl)-3-methoxybenzyl]carbamoyl}-4-(N,3-dicyclohexyl-D-alanyl)piperazine-1-carboxylate] was tested, and the IC50 was 1.6 nM. `NCc1ccc(CNC(=O)[C@@H]2CN(C(=O)Oc3cccc4ccccc34)CCN2C(=O)[C@@H](CC2CCCCC2)NC2CCCCC2)cc1` [Example 26, naphthalen-1-yl (3S)-3-{[4-(aminomethyl)benzyl]carbamoyl}-4-(N,3-dicyclohexyl-D-alanyl)piperazine-1-carboxylate] showed an IC50 of 8.4 nM. With `COc1cc(CNC(=O)[C@@H]2CN(C(=O)Oc3cccc4ccccc34)CCN2C(=O)[C@@H](CC2CCCCC2)NC2CCC3(CC2)CCN(Cc2ccccc2)C3)ccc1CN` (stereo partly drawn) [Example 28, naphthalen-1-yl (3S)-3-{[4-(aminomethyl)-3-methoxybenzyl]carbamoyl}-4-[N-(2-benzyl-2-azaspiro[4.5]dec-8-yl)-3-cyclohexyl-D-alanyl]piperazine-1-carboxylate] the IC50 was 3.9 nM. `Cc1ncnc2c(OC(=O)N3CCN(C(=O)[C@@H](CC4CCCCC4)NC4CCCCC4)[C@H](C(=O)NCc4cccs4)C3)cccc12` [Example 29, 4-methylquinazolin-8-yl (3S)-4-(N,3-dicyclohexyl-D-alanyl)-3-[(thiophen-2-ylmethyl)carbamoyl]piperazine-1-carboxylate] showed an IC50 of 3.3 nM. `O=C(NCc1cccs1)[C@@H]1CN(C(=O)Oc2cccc3cccnc23)CCN1C(=O)[C@@H](CC1CCCCC1)NC1CCCCC1` [Example 30, quinolin-8-yl (3S)-4-(N,3-dicyclohexyl-D-alanyl)-3-[(thiophen-2-ylmethyl)carbamoyl]piperazine-1-carboxylate] was tested, and the IC50 was 5.8 nM. Compound `O=C(NCc1cccs1)[C@@H]1CN(C(=O)Oc2ccc(F)c3cccnc23)CCN1C(=O)[C@@H](CC1CCCCC1)NC1CCCCC1` [Example 32, 5-fluoroquinolin-8-yl (3S)-4-(N,3-dicyclohexyl-D-alanyl)-3-[(thiophen-2-ylmethyl)carbamoyl]piperazine-1-carboxylate] has an IC50 of 5.2 nM. For `O=C(NCc1cccs1)[C@@H]1CN(C(=O)Oc2cccc3ccc(O)nc23)CCN1C(=O)[C@@H](CC1CCCCC1)NC1CCCCC1` [Example 33, 2-hydroxyquinolin-8-yl (3S)-4-(N,3-dicyclohexyl-D-alanyl)-3-[(thiophen-2-ylmethyl)carbamoyl]piperazine-1-carboxylate], the IC50 was 20 nM. `O=C(NCc1cccs1)[C@@H]1CN(C(=O)Oc2cccc3c2CCNC3)CCN1C(=O)[C@@H](CC1CCCCC1)NC1CCCCC1` [Example 36, 1,2,3,4-tetrahydroisoquinolin-5-yl (3S)-4-(N,3-dicyclohexyl-D-alanyl)-3-[(thiophen-2-ylmethyl)carbamoyl]piperazine-1-carboxylate] showed an IC50 of 4.1 nM. In the case of `O=C(NCc1cccs1)[C@@H]1CN(C(=O)Oc2cccc3c2CNCC3)CCN1C(=O)[C@@H](CC1CCCCC1)NC1CCCCC1` [Example 37, 1,2,3,4-tetrahydroisoquinolin-8-yl (3S)-4-(N,3-dicyclohexyl-D-alanyl)-3-[(thiophen-2-ylmethyl)carbamoyl]piperazine-1-carboxylate], the IC50 is reported as 5.3 nM. With `CS(=O)(=O)N1CCC([C@@H](NC2CCCCC2)C(=O)N2CCN(C(=O)Oc3ccccc3Cl)C[C@H]2C(=O)NCc2cccs2)CC1` [Example 42, 2-chlorophenyl (3S)-4-{(2R)-2-(cyclohexylamino)-2-[1-(methylsulfonyl)piperidin-4-yl]acetyl}-3-[(thiophen-2-ylmethyl)carbamoyl]piperazine-1-carboxylate] the IC50 was 6 nM. Work on `COc1cc(CNC(=O)[C@@H]2CN(C(=O)Oc3ccc4ccccc4c3Cl)CCN2C(=O)[C@@H](CC2CCCCC2)NC2CCCCC2)ccc1CN` [Example 44, 1-chloronaphthalen-2-yl (3S)-3-{[4-(aminomethyl)-3-methoxybenzyl]carbamoyl}-4-(N,3-dicyclohexyl-D-alanyl)piperazine-1-carboxylate] yielded an IC50 of 2.7 nM. `CS(=O)(=O)NCCCC[C@@H](NC1CCC2(CC1)CCN(Cc1ccccc1)C2)C(=O)N1CCN(C(=O)Oc2ccccc2Cl)C[C@H]1C(=O)NCc1cccs1` (stereo partly drawn) [Example 54, 2-chlorophenyl (3S)-4-[N^2-(2-benzyl-2-azaspiro[4.5]dec-8-yl)-N~6~- (methylsulfonyl)-D-lysyl]-3-[(thiophen-2-ylmethyl)carbamoyl]piperazine-1-carboxylate] gave an IC50 of 8.1 nM. `NCc1cccc(OC(=O)N2CCN(C(=O)[C@@H](CC3CCCCC3)NC3CCCCC3)[C@H](C(=O)NCc3cccs3)C2)c1Cl` [Example 55, 3-(aminomethyl)-2-chlorophenyl (3S)-4-(N,3-dicyclohexyl-D-alanyl)-3-[(thiophen-2-ylmethyl)carbamoyl]piperazine-1-carboxylate] showed an IC50 of 1.1 nM. `NCc1ccc(OC(=O)N2CCN(C(=O)[C@@H](CC3CCCCC3)NC3CCC4(CC3)CCN(Cc3ccccc3)C4)[C@H](C(=O)NCc3cccs3)C2)c2ccccc12` (stereo partly drawn) [Example 59, 4-(aminomethyl)naphthalen-1-yl (3S)-4-[N-(2-benzyl-2-azaspiro[4.5]dec-8-yl)-3-cyclohexyl-D-alanyl]-3-[(thiophen-2-ylmethyl)carbamoyl]piperazine-1-carboxylate] was tested, and the IC50 was 4.6 nM. `CCS(=O)(=O)N1CCC([C@@H](NC2CCCCC2)C(=O)N2CCN(C(=O)Oc3ccccc3Cl)C[C@H]2C(=O)NCc2cccs2)CC1` [Example 61, 2-chlorophenyl (3S)-4-{(2R)-2-(cyclohexylamino)-2-[1-(ethylsulfonyl)piperidin-4-yl]acetyl}-3-[(thiophen-2-ylmethyl)carbamoyl]piperazine-1-carboxylate] gave an IC50 of 4.2 nM. `O=C(NCc1cccs1)[C@@H]1CN(C(=O)Oc2ccccc2Cl)CCN1C(=O)[C@H](NC1CCCCC1)C1CCN(S(=O)(=O)C2CC2)CC1` [Example 62, 2-chlorophenyl (3S)-4-{(2R)-2-(cyclohexylamino)-2-[1-(cyclopropylsulfonyl)piperidin-4-yl]acetyl}-3-[(thiophen-2-ylmethyl)carbamoyl]piperazine-1-carboxylate] gave an IC50 of 1.7 nM. `CC(C)S(=O)(=O)N1CCC([C@@H](NC2CCCCC2)C(=O)N2CCN(C(=O)Oc3ccccc3Cl)C[C@H]2C(=O)NCc2cccs2)CC1` [Example 63, 2-chlorophenyl (3S)-4-[(2R)-2-(cyclohexylamino)-2-{1-[(1-methylethyl)sulfonyl]piperidin-4-yl}acetyl]-3-[(thiophen-2-ylmethyl)carbamoyl]piperazine-1-carboxylate] gave an IC50 of 2.6 nM. For `CC(C)(C)C(=O)N1CCC([C@@H](NC2CCCCC2)C(=O)N2CCN(C(=O)Oc3ccccc3Cl)C[C@H]2C(=O)NCc2cccs2)CC1` [Example 69, 2-chlorophenyl (3S)-4-{(2R)-2-(cyclohexylamino)-2-[1-(2,2-dimethylpropanoyl)piperidin-4-yl]acetyl}-3-[(thiophen-2-ylmethyl)carbamoyl]piperazine-1-carboxylate], the IC50 was 8.4 nM. In the case of `CS(=O)(=O)NCCCC[C@@H](NC1CCCCC1)C(=O)N1CCN(C(=O)Oc2ccc3ccccc3c2Cl)C[C@H]1C(=O)NCc1cccs1` [Example 70, 1-chloronaphthalen-2-yl (3S)-4-[N^2-cyclohexyl-N^6-(methylsulfonyl)-D-lysyl]-3-[(thiophen-2-ylmethyl)carbamoyl]piperazine-1-carboxylate], the IC50 is reported as 20 nM. With `CN(C)CCCC[C@@H](NC1CCCCC1)C(=O)N1CCN(C(=O)Oc2ccccc2Cl)C[C@H]1C(=O)NCc1cccs1` [Example 73, 2-chlorophenyl (3S)-4-(N^2-cyclohexyl-N^6,N^6-dimethyl-D-lysyl)-3-[(thiophen-2-ylmethyl)carbamoyl]piperazine-1-carboxylate] the IC50 was 1.1 nM. With `COc1cc(CNC(=O)[C@@H]2CN(C(=O)Oc3ccc4ccccc4c3Cl)CCN2C(=O)[C@@H](CCCCNS(C)(=O)=O)NC2CCC3(CC2)CCN(Cc2ccccc2)C3)ccc1CN` (stereo partly drawn) [Example 74, 1-chloronaphthalen-2-yl (3S)-3-{[4-(aminomethyl)-3-methoxybenzyl]carbamoyl}-4-[N^2-(2-benzyl-2-azaspiro[4.5]dec-8-yl)-N^6-(methylsulfonyl)-D-lysyl]piperazine-1-carboxylate] the IC50 was 3.7 nM.

From patent US10875851B2, “Factor XIIa inhibitors” (Merck Sharp & Dohme Corp., priority 2016, dated 2020)
